Assays:
Format in all cases: biochemical
Conditions in all cases: Gly-Pro-pNA 0.4 mM, HEPES pH 7.6, 30° C.
[1] = target: human recombinant DP9 (Homo sapiens, UniProt Q86TI2); assay: IC50 of DP9 inhibition, human recombinant enzyme (Gly-Pro-pNA substrate)
Method: (§1) 100 μl inhibitor stock solution were mixed with 100 μl buffer (HEPES pH 7.6) and 50 μl substrate (Gly-Pro-pNA, final concentration 0.4 mM) and preincubated at 30° C. Reaction was started by addition of 20 μl enzyme solution (either purified porcine DP IV, human recombinant DP IV, human recombinant DP II or human recombinant DP9). Formation of the product pNA was measured at 405 nm over 10 min using the HTS 7000Plus plate reader (Perkin Elmer) and slopes were calculated. The final inhibitor concentrations ranged between 1 mM and 30 nM.
(§2) For calculation of IC50-values GraFit 4.0.13 (Erithacus Software) was used.

[2] = target: human recombinant DP II (Homo sapiens, UniProt Q9UHL4); assay: IC50 of DP II inhibition, human recombinant enzyme (Gly-Pro-pNA substrate)
Method: as §1, §2

[3] = target: human recombinant DP IV (Homo sapiens, UniProt P27487); assay: IC50 of DP IV inhibition, human recombinant enzyme (Gly-Pro-pNA substrate)
Method: as §1, §2

[4] = target: T1, purified porcine DP IV (Sus scrofa, UniProt P22411); assay: IC50 of DP IV inhibition, porcine kidney enzyme (Gly-Pro-pNA substrate)
T1 construct: purified porcine DP IV; from tissue; host or cells: porcine kidney
Method: as §1, §2

T1 sequence (P22411 whole entry): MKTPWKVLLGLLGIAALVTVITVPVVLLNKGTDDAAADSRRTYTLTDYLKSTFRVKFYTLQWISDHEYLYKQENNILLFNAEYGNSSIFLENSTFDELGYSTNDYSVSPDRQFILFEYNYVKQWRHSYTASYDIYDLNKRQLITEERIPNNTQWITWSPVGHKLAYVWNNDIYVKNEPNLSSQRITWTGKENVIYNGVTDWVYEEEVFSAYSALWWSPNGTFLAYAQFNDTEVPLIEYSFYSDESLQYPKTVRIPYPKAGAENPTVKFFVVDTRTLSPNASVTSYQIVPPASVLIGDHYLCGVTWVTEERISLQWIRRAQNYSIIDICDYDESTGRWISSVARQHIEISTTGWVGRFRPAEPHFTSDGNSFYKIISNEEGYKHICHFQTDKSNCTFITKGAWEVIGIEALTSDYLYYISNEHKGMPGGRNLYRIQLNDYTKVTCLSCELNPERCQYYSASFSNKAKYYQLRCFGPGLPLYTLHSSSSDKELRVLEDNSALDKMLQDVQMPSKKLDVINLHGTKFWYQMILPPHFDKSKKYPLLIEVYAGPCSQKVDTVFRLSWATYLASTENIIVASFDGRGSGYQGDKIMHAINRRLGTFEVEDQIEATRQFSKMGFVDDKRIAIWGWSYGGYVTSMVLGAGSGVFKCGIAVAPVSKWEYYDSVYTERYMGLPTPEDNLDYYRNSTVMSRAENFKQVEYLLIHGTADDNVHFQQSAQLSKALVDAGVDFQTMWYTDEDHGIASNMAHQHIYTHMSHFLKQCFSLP
human recombinant DP9, sequence (Q86TI2 whole entry): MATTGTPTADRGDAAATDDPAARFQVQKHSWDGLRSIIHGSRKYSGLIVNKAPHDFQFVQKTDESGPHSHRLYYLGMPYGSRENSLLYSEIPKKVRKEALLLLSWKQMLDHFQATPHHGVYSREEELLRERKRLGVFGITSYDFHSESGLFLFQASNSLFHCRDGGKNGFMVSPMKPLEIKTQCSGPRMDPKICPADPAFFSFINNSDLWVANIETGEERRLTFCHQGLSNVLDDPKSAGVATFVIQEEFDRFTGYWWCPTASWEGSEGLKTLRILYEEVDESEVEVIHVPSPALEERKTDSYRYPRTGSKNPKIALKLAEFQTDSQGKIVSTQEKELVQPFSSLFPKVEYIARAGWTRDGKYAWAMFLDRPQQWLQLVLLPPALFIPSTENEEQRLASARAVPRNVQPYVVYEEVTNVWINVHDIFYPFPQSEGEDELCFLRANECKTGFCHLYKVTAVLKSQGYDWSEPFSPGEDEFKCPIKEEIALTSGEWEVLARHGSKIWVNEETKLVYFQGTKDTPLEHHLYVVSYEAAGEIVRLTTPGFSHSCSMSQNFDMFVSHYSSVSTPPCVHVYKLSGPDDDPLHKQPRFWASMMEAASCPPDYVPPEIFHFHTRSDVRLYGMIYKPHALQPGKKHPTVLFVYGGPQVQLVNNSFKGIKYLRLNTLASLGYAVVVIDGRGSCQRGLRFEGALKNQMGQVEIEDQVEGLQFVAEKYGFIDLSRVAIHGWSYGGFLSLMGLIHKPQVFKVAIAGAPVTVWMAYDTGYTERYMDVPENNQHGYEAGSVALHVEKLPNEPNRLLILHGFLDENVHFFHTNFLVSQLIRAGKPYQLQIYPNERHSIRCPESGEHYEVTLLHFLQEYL
human recombinant DP IV, sequence (P27487 whole entry): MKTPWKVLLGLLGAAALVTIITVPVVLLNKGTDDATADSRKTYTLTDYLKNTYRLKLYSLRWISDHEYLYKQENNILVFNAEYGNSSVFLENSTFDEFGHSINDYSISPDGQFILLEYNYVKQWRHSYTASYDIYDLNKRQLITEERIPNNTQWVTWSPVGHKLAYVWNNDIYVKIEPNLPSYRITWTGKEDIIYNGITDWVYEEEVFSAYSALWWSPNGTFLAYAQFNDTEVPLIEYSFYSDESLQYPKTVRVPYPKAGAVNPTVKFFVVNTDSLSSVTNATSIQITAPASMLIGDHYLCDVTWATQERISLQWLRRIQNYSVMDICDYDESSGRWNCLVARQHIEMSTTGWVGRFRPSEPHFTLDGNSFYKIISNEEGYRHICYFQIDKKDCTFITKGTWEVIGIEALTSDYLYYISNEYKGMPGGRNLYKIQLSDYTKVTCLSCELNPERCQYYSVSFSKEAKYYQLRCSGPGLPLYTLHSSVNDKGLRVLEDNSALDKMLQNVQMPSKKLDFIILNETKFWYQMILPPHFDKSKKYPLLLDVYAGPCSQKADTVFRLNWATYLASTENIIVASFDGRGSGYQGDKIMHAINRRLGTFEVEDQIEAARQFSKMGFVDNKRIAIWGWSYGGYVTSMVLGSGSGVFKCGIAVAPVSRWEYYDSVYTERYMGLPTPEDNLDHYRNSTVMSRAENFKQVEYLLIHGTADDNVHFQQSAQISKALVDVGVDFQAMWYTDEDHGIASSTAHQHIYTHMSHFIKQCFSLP

IC50 [1] [nM] | IC50 [2] [nM] | IC50 [3] [nM] | IC50 [4] [nM] | SMILES
15.9 | 3820 | 31.6 | 3.53 | CC(C)[C@H](N)C(=O)N1CC2CC2C1B(O)O (stereo partly drawn) [Example 1]
18.4 | 21100 | 75 | 10.2 | CC(C)(C)[C@H](N)C(=O)N1CC2CC2C1B(O)O (stereo partly drawn) [Example 2]
10.8 | 1470 | 45.1 | 9.46 | CC[C@H](C)[C@H](N)C(=O)N1CC2CC2C1B(O)O (stereo partly drawn) [Example 3]

Reference: patent US7625939B2, “Cyclopropyl-fused pyrrolidine derivatives as dipeptidyl peptidase IV inhibitors” (Probiodrug AG, priority 2005, dated 2009)
